Measurements: US20260217701A1, “SELECTIVE BET INHIBITORS AND USES THEREOF” (Tay Therapeutics Limited, priority 2022, published 2026)
Values joined by “and” are separate entries in the source; they are usually repeats but may differ in a detail not shown here. Equal entries are not always repeated. “Also recorded” adds a separate entry of the source.

Experiments:
[1] = test system: Col1a1, TGB-b1, MCP-1, IL-1b, IL-6, IL-17, TNF-α, Timp1; experiment: UUO study: tissue RNA levels of biomarkers; type: in vivo, rats
Text: Tables 29A-29B and FIGS. 28A-28B show tissue RNA levels of various biomarkers (Col1a1, TGB-b1, MCP-1, IL-1b, IL-6, IL-17, TNF-α, and Timp1) in sham rats (black bar in FIG. 28A; square shape in FIG. 28B), UUO rats treated with vehicle (grey bar in FIG. 28A; circle shape in FIG. 28B), and UUO rats treated with Compound A (white bar in FIG. 28A; triangle shape in FIG. 28B). […] FIG. 28C further illustrates gene expression levels of Col1a1, TGB-b1, IL-1b, IL-17, MCP-1, and IL-6 relative to the vehicle control. […] To place this reduction in context, IL-6 is said to be a significant contributor to a continued inflammatory response in certain nephritis conditions.

hydroxyproline = experiment: Bleomycin IPF model: hydroxyproline content in lung lysates; type: in vivo, C57BI/6J mice; design: Hydroxyproline Levels, Mean: unit not given here
Experimental: Male C57BI/6J mice, aged 12 weeks with an approximate weight of 25-30 g were obtained from Jackson Laboratories (Bar Harbor, ME). Animals were acclimated for two weeks prior to study initiation, and were randomized into the experimental groups outlined in Table 32.
Intratracheal (IT) administration of Bleo or PBS control was conducted at the start of the study (Day 0). […] Animals were weighed on Day 0, and indexed boluses of PBS control (Group 1) or Bleo (Groups 2-6) were delivered by IT administration.
Following administration of Bleo, animals (n=10/group) were included in the study if they met the following guidelines on Day 7: (1) a predictable 5% loss in body weight, and (2) the presence of fibrotic pulmonary lesions, detected by micro-CT imaging. 10 animals from Group 1 additionally proceeded as controls. Animals that continued in the study on Day 7 received an oral gavage (OG) administration of PBS, Compound A (1 mg/kg, 3 mg/kg, 10 mg/kg), or Pirfenidone (300 mg/kg), as outlined in Table 31 in 25 μL boluses every other day (QOD), starting on Day 7. Compound A was formulated in 5% (v/v) DMSO/15% (v/v) PEG 400/80% (v/v) E-TPGS in purified water.
Animals were euthanized on Day 21 following Micro-CT imaging, and the right lung was collected for biochemical analysis, and the left lung was inflation-fixed for morphological assessments. A resection of the right lung was weighed and homogenized to determine total hydroxyproline levels by colorimetric assay, and the remaining lung lysate was saved for future analyses.

[2] = test system: gastrointestinal mucosa / goblet cells; experiment: Gastrointestinal histopathology (Dog PK Study #4); type: in vivo; details: healthy beagle dogs; 10 mg/kg; Day 15
Experimental: Oral pan-BD BET inhibitors are known to negatively impact gastrointestinal mucosa through goblet cell toxicity, leading to related gastrointestinal adverse events in the clinic (Faivre et al., Nature, 578:306-310 (2020)). Therefore, the impact of Compound A on gastrointestinal toxicity and the mucosa was assessed in healthy beagle dogs as part of Dog PK Study #4, outlined in Experimental Method B.
Following completion of Dog PK study #4 on Day 15, animals were euthanized, and the large and small intestines were collected and fixed in 10% neutral buffered formalin. The tissues were then removed from the fixative, processed, embedded in paraffin, sectioned, and stained with hematoxylin and eosin, prior to microscopic examination.

[3] = UUO rats + Compound A, N=8, relative to UUO + Vehicle = 1.00
[4] = UUO rats, tissue, Compound A 10mg/kg QD, individual animals, 10 mg/kg

Structure (SMILES): Cn1cc(-c2ccccc2)c(-c2cn(C)c(=O)c3[nH]c(-c4cnn(C(F)(F)F)c4)cc23)cc1=O [Compound A, 6-methyl-4-(1-methyl-2-oxo-5-phenyl-1,2-dihydropyridin-4-yl)-2-(1-(trifluoromethyl)-1H-pyrazol-4-yl)-1,6-dihydro-7H-pyrrolo[2,3-c]pyridin-7-one]
- Col1a1 RNA level, Mean ± SEM [1, 3]: 0.39 ± 0.04
- IL-1b RNA level, Mean ± SEM [1, 3]: 0.31 ± 0.03
- IL-6 RNA level, Mean ± SEM [1, 3]: 0.11 ± 0.02
- IL-17 RNA level, Mean ± SEM [1, 3]: 0.35 ± 0.07
- MCP-1 RNA level, Mean ± SEM [1, 3]: 0.33 ± 0.05
- TGF-b1 RNA level, Mean ± SEM [1, 3]: 0.52 ± 0.05
- TNF-a RNA level, Mean ± SEM [1, 3]: 1.00 ± 0.11
- Timp1 RNA level, Mean ± SEM [1, 3]: 0.54 ± 0.09
- Col1a1 RNA level, Normalized Fold Change [1, 4]: 0.51 and 0.31 and 0.19 and 0.50 (2×) and 0.40 and 0.34 and 0.41
- IL-1b RNA level, Normalized Fold Change [1, 4]: 0.37 and 0.28 and 0.24 (3×) and 0.45 and 0.23 and 0.40
- IL-6 RNA level, Normalized Fold Change [1, 4]: 0.11 (2×) and 0.09 and 0.04 and 0.14 and 0.18 and 0.13 and 0.05
- IL-17 RNA level, Normalized Fold Change [1, 4]: 0.37 and 0.14 and 0.26 and 0.51 and 0.12 and 0.45 and 0.72 and 0.20
- MCP-1 RNA level, Normalized Fold Change [1, 4]: 0.48 and 0.24 and 0.18 and 0.34 and 0.44 and 0.25 and 0.50 and 0.20
- TGF-b1 RNA level, Normalized Fold Change [1, 4]: 0.71 and 0.42 and 0.28 and 0.58 and 0.64 (2×) and 0.40 and 0.50
- TNF-a RNA level, Normalized Fold Change [1, 4]: 1.50 and 1.16 and 1.00 and 0.79 and 1.05 and 0.62 and 1.20 and 0.64
- Timp1 RNA level, Normalized Fold Change [1, 4]: 0.83 and 0.41 and 0.36 and 0.72 (2×) and 0.66 and 0.09 and 0.52
- Tissue RNA level of TNF-α ([1]; UUO rats, 10 mg/kg): no observable effect
- Tissue RNA levels of Col1a1, TGB-b1, MCP-1, IL-1b, IL-6, IL-17, Timp1 ([1]; UUO rats, 10 mg/kg PO QD, vs vehicle, 10 mg/kg): reduced levels of Colla1, TGB-b1, MCP-1, IL-1b, IL-6, IL-17, and Timp1; also recorded: markedly lower
- Hydroxyproline Levels, Mean (hydroxyproline; Bleo + Compound A (1 mg/kg) OG QOD from D7): 0.05281
- Hydroxyproline Levels, Mean (hydroxyproline; Bleo + Compound A (3 mg/kg) OG QOD from D7): 0.05418
- Hydroxyproline Levels, Mean (hydroxyproline; Bleo + Compound A (10 mg/kg) OG QOD from D7): 0.04627
- Hydroxyproline levels relative to Group 2 (hydroxyproline; Day 21, 1 mg/kg and 3 mg/kg): reduced levels of hydroxyproline
- Hydroxyproline levels, lower than IPF control group (Bleo+Saline) (hydroxyproline; Day 21, 10 mg/kg): about 60.4%
- Effect on gastrointestinal villus morphology or goblet cell number [2]: no deleterious effect
